Results reported in ChEMBL document CHEMBL5584255, “Synthesis and antibacterial medicinal evaluation of carbothioamido hydrazonyl thiazolylquinolone with multitargeting antimicrobial potential to combat increasingly global resistance” (Eur J Med Chem, 2024).
In brackets after ≈: the same amount, converted by molar mass.

Tests used:
Assay type in all cases: functional
[1] = system: Candida albicans; assay: Antifungal activity against Candida albicans ATCC 90023
[2] = system: Candida albicans; assay: Antifungal activity against drug-resistant Candida albicans
[3] = system: Candida parapsilosis; assay: Antifungal activity against Candida parapsilosis ATCC 22019; conditions: Lodderomyces parapsilosis
[4] = system: Candida tropicalis; assay: Antifungal activity against drug-resistant Candida tropicalis
[5] = system: Aspergillus fumigatus; assay: Antifungal activity against Aspergillus fumigatus
[6] = system: Staphylococcus aureus; assay: Antibacterial activity against Staphylococcus aureus ATCC 25923 by microbroth dilution method
[7] = system: Staphylococcus aureus; assay: Antibacterial activity against Staphylococcus aureus ATCC 29213 by microbroth dilution method
[8] = system: Staphylococcus aureus; assay: Antibacterial activity against drug-resistant Staphylococcus aureus by microbroth dilution method
[9] = system: Staphylococcus aureus; assay: Antibacterial activity against methicillin-resistant Staphylococcus aureus N315 by microbroth dilution method
[10] = system: Enterococcus faecalis; assay: Antibacterial activity against drug-resistant Enterococcus faecalis by microbroth dilution method
[11] = system: Escherichia coli; assay: Antibacterial activity against Escherichia coli ATCC 25922 by microbroth dilution method
[12] = system: Pseudomonas aeruginosa; assay: Antibacterial activity against Pseudomonas aeruginosa ATCC 27853 by microbroth dilution method
[13] = system: Escherichia coli; assay: Antibacterial activity against drug-resistant Escherichia coli by microbroth dilution method
[14] = system: Pseudomonas aeruginosa; assay: Antibacterial activity against Pseudomonas aeruginosa by microbroth dilution method
[15] = system: Klebsiella pneumoniae; assay: Antibacterial activity against Klebsiella pneumoniae by microbroth dilution method
[16] = system: Acinetobacter baumannii; assay: Antibacterial activity against Acinetobacter baumannii by microbroth dilution method

SMILES | MIC [1] | MIC [2] | MIC [3] | MIC [4] | MIC [5] | MIC [6] | MIC [7] | MIC [8] | MIC [9] | MIC [10] | MIC [11] | MIC [12] | MIC [13] | MIC [14] | MIC [15] | MIC [16]
OC(Cn1cncn1)(Cn1cncn1)c1ccc(F)cc1F [FLUCONAZOLE] | 3 µM (≈ 0.919 µg/mL) | 13 µM (≈ 3.98 µg/mL) | 6 µM (≈ 1.84 µg/mL) | 25 µM (≈ 7.66 µg/mL) | 802 µM (≈ 246 µg/mL) |  |  |  |  |  |  |  |  |  |  | 
C/C(Cn1cc(-c2csc(C)n2)c(=O)c2cc(F)c(F)cc21)=N\NC(N)=S | 1260 µM (≈ 513 µg/mL) | 1260 µM (≈ 513 µg/mL) | 1260 µM (≈ 513 µg/mL) | 1260 µM (≈ 513 µg/mL) | 1260 µM (≈ 513 µg/mL) | 1260 µM (≈ 513 µg/mL) | 1260 µM (≈ 513 µg/mL) | 1260 µM (≈ 513 µg/mL) | 1260 µM (≈ 513 µg/mL) | 629 µM (≈ 256 µg/mL) | 1260 µM (≈ 513 µg/mL) | 314 µM (≈ 128 µg/mL) | 1260 µM (≈ 513 µg/mL) | 314 µM (≈ 128 µg/mL) | 1260 µM (≈ 513 µg/mL) | 314 µM (≈ 128 µg/mL)
Nc1nc(-c2c[nH]c3cc(Cl)c(F)cc3c2=O)cs1 | 109 µM (≈ 32.2 µg/mL) | 217 µM (≈ 64.2 µg/mL) | 1740 µM (≈ 513 µg/mL) | 217 µM (≈ 64.2 µg/mL) | 217 µM (≈ 64.2 µg/mL) | 217 µM (≈ 64.2 µg/mL) | 434 µM (≈ 128 µg/mL) | 868 µM (≈ 257 µg/mL) | 1740 µM (≈ 513 µg/mL) | 868 µM (≈ 257 µg/mL) | 217 µM (≈ 64.2 µg/mL) | 868 µM (≈ 257 µg/mL) | 434 µM (≈ 128 µg/mL) | 868 µM (≈ 257 µg/mL) | 868 µM (≈ 257 µg/mL) | 868 µM (≈ 257 µg/mL)
CC(=O)Cn1cc(-c2csc(N)n2)c(=O)c2cc(F)c(F)cc21 | 382 µM (≈ 128 µg/mL) | 764 µM (≈ 256 µg/mL) | 764 µM (≈ 256 µg/mL) | 764 µM (≈ 256 µg/mL) | 382 µM (≈ 128 µg/mL) | 382 µM (≈ 128 µg/mL) | 382 µM (≈ 128 µg/mL) | 382 µM (≈ 128 µg/mL) | 382 µM (≈ 128 µg/mL) | 382 µM (≈ 128 µg/mL) | 382 µM (≈ 128 µg/mL) | 382 µM (≈ 128 µg/mL) | 764 µM (≈ 256 µg/mL) | 382 µM (≈ 128 µg/mL) | 764 µM (≈ 256 µg/mL) | 382 µM (≈ 128 µg/mL)
C/C(Cn1cc(-c2csc(N)n2)c(=O)c2cc(F)cc(F)c21)=N\NC(N)=S | 627 µM (≈ 256 µg/mL) | 627 µM (≈ 256 µg/mL) | 314 µM (≈ 128 µg/mL) | 627 µM (≈ 256 µg/mL) | 1260 µM (≈ 513 µg/mL) | 157 µM (≈ 64.1 µg/mL) | 78 µM (≈ 31.9 µg/mL) | 78 µM (≈ 31.9 µg/mL) | 314 µM (≈ 128 µg/mL) | 1260 µM (≈ 513 µg/mL) | 1260 µM (≈ 513 µg/mL) | 627 µM (≈ 256 µg/mL) | 1260 µM (≈ 513 µg/mL) | 627 µM (≈ 256 µg/mL) | 627 µM (≈ 256 µg/mL) | 627 µM (≈ 256 µg/mL)
CC(=O)Cn1cc(-c2csc(N)n2)c(=O)c2cc(F)ccc21 | 51 µM (≈ 16.2 µg/mL) | 404 µM (≈ 128 µg/mL) | 1620 µM (≈ 513 µg/mL) | 404 µM (≈ 128 µg/mL) | 404 µM (≈ 128 µg/mL) | 202 µM (≈ 64.1 µg/mL) | 404 µM (≈ 128 µg/mL) | 404 µM (≈ 128 µg/mL) | 404 µM (≈ 128 µg/mL) | 807 µM (≈ 256 µg/mL) | 404 µM (≈ 128 µg/mL) | 404 µM (≈ 128 µg/mL) | 404 µM (≈ 128 µg/mL) | 404 µM (≈ 128 µg/mL) | 807 µM (≈ 256 µg/mL) | 807 µM (≈ 256 µg/mL)
CCOC(=O)c1cn(C/C(C)=N/NC(N)=S)c2cc(Cl)c(F)cc2c1=O | 643 µM (≈ 256 µg/mL) | 1290 µM (≈ 513 µg/mL) | 161 µM (≈ 64.2 µg/mL) | 643 µM (≈ 256 µg/mL) | 322 µM (≈ 128 µg/mL) | 643 µM (≈ 256 µg/mL) | 643 µM (≈ 256 µg/mL) | 643 µM (≈ 256 µg/mL) | 643 µM (≈ 256 µg/mL) | 643 µM (≈ 256 µg/mL) | 1290 µM (≈ 513 µg/mL) | 322 µM (≈ 128 µg/mL) | 1290 µM (≈ 513 µg/mL) | 322 µM (≈ 128 µg/mL) | 643 µM (≈ 256 µg/mL) | 643 µM (≈ 256 µg/mL)
Nc1nc(-c2c[nH]c3cc(F)c(F)cc3c2=O)cs1 | 229 µM (≈ 64 µg/mL) | 229 µM (≈ 64 µg/mL) | 459 µM (≈ 128 µg/mL) | 459 µM (≈ 128 µg/mL) | 229 µM (≈ 64 µg/mL) | 459 µM (≈ 128 µg/mL) | 459 µM (≈ 128 µg/mL) | 459 µM (≈ 128 µg/mL) | 459 µM (≈ 128 µg/mL) | 918 µM (≈ 256 µg/mL) | 459 µM (≈ 128 µg/mL) | 459 µM (≈ 128 µg/mL) | 459 µM (≈ 128 µg/mL) | 459 µM (≈ 128 µg/mL) | 918 µM (≈ 256 µg/mL) | 918 µM (≈ 256 µg/mL)
C/C(Cn1cc(-c2csc(C)n2)c(=O)c2cc(F)ccc21)=N\NC(N)=S | 658 µM (≈ 256 µg/mL) | 658 µM (≈ 256 µg/mL) | 329 µM (≈ 128 µg/mL) | 1320 µM (≈ 513 µg/mL) | 658 µM (≈ 256 µg/mL) | 658 µM (≈ 256 µg/mL) | 658 µM (≈ 256 µg/mL) | 658 µM (≈ 256 µg/mL) | 658 µM (≈ 256 µg/mL) | 1320 µM (≈ 513 µg/mL) | 658 µM (≈ 256 µg/mL) | 658 µM (≈ 256 µg/mL) | 658 µM (≈ 256 µg/mL) | 658 µM (≈ 256 µg/mL) | 165 µM (≈ 64.3 µg/mL) | 658 µM (≈ 256 µg/mL)
Cc1nc(-c2c[nH]c3c(F)cccc3c2=O)cs1 | 985 µM (≈ 256 µg/mL) | 985 µM (≈ 256 µg/mL) | 492 µM (≈ 128 µg/mL) | 492 µM (≈ 128 µg/mL) | 492 µM (≈ 128 µg/mL) | 985 µM (≈ 256 µg/mL) | 1970 µM (≈ 513 µg/mL) | 1970 µM (≈ 513 µg/mL) | 1970 µM (≈ 513 µg/mL) | 985 µM (≈ 256 µg/mL) | 985 µM (≈ 256 µg/mL) | 492 µM (≈ 128 µg/mL) | 1970 µM (≈ 513 µg/mL) | 985 µM (≈ 256 µg/mL) | 985 µM (≈ 256 µg/mL) | 492 µM (≈ 128 µg/mL)
Nc1nc(Cn2cc(-c3csc(N)n3)c(=O)c3cc(F)c(Cl)cc32)cs1 | 39 µM (≈ 15.9 µg/mL) | 157 µM (≈ 64 µg/mL) | 79 µM (≈ 32.2 µg/mL) | 315 µM (≈ 128 µg/mL) | 315 µM (≈ 128 µg/mL) | 39 µM (≈ 15.9 µg/mL) | 20 µM (≈ 8.16 µg/mL) | 39 µM (≈ 15.9 µg/mL) | 315 µM (≈ 128 µg/mL) | 315 µM (≈ 128 µg/mL) | 20 µM (≈ 8.16 µg/mL) | 39 µM (≈ 15.9 µg/mL) | 157 µM (≈ 64 µg/mL) | 157 µM (≈ 64 µg/mL) | 315 µM (≈ 128 µg/mL) | 157 µM (≈ 64 µg/mL)
